Consider 5 molecules from ChEMBL document CHEMBL1152976, “Dracotanosides A-D, spermidine glycosides from Dracocephalum tanguticum: structure and amide rotational barrier” (J Nat Prod, 2009).

SMILES strings stand for the structures. Bounds are passed on as bounds.

The nature of test [1]: Cytotoxicity against human drug-resistant K562/A02 cells after 48 hrs by MTT assay. It is filed as functional, cell-based. To be noted: K562/A02, 48 h.
A further test concerns K562. In words: Cytotoxicity against human drug-sensitive K562 cells after 48 hrs by MTT assay. To be noted: K562, 48 h. It is filed as functional, cell-based.

Consider `C[C@H]1O[C@@H](Oc2ccc([C@H]3CCCN(C(=O)/C=C/c4ccccc4)CCCNC(=O)CCN3)cc2)[C@@H](O)[C@@H](O)[C@@H]1O` [DRACOTANOSIDE D], for which the IC50 (in test [1]; with K562) was more than 200 µM in each case.

For the molecule `C[C@@H]1O[C@@H](Oc2ccc([C@H]3CCCN(C(=O)/C=C\c4ccccc4)CCCNC(=O)CCN3)cc2)[C@H](O[C@@H]2O[C@H](COC(=O)c3ccccc3)[C@@H](O)[C@H](O)[C@H]2O)[C@H](O)[C@H]1O` [DRACOTANOSIDE A], the IC50 (in test [1]; in the test on K562) was more than 200 µM each time.

`O=C1CCN[C@@H](c2ccc(O)cc2)CCCN(C(=O)/C=C\c2ccccc2)CCCN1`: the IC50 (in test [1]; with K562) was more than 200 µM each time.

In the case of `C[C@@H]1O[C@@H](Oc2ccc([C@H]3CCCN(C(=O)/C=C/c4ccccc4)CCCNC(=O)CCN3)cc2)[C@H](O[C@@H]2O[C@H](COC(=O)c3ccccc3)[C@@H](O)[C@H](O)[C@H]2O)[C@H](O)[C@H]1O` [DRACOTANOSIDE B], the IC50 (in test [1]; in the test on K562) was more than 200 µM each time.

On to `C[C@H]1O[C@@H](Oc2ccc([C@H]3CCCN(C(=O)/C=C\c4ccccc4)CCCNC(=O)CCN3)cc2)[C@@H](O)[C@@H](O)[C@@H]1O` [DRACOTANOSIDE C], for which the IC50 (in test [1]; with K562) was more than 200 µM in each case.

One may read the IC50 as the concentration that gives 50% inhibition. Read a high IC50 as weaker potency in that assay.
